“And” between values parts separate entries of the source, which are not always exact repeats. Equal values may be shown once.
What was measured:
[1] = Metabolite profiling in plasma by HPLC–LSC; type: in vivo, human; conditions: for Occurrence in plasma: radiochromatography of plasma; for Percent of total AUC(0–144) of radioactivity in plasma: based on HPLC–LSC, mean
Experimental: Blood and plasma: Blood samples (18.7 mL per each time point) were collected into nonbeaded lithium-heparinized tubes immediately pre-dose and at the following post-dose times: 0.5, 1, 1.5, 2, 2.5, 3, 4, 6, 9, 12, 16, 20, 24, 36, 48, 72, 96, 120, 144, 192, 240, and 288 h. For each sample, 1 mL of whole blood was stored at 4 °C for subsequent LSC and the remainder was processed for plasma. Individual 150 μL plasma samples for each time point were treated with formic acid (20 μL) and acetonitrile (450 μL). The samples were homogenized using a MS2 Minishaker® (IKA® Labortechnik, Staufen im Breisgau, Germany). The precipitated proteins were removed by centrifugation (5 min, 13,000 rpm, Biofuge). After concentrating the supernatant to about 80 μL, methanol (15 μL) was added. The individual samples were analyzed by HPLC with off-line radioactivity detection for metabolite profiling.
Pharmacokinetic outcome measures were generated by non-compartmental analysis of plasma concentration–time data using WinNonlin v4.1 (Pharsight Corporation) in conjunction with Kincalc v2.50 (Bayer AG). For individual subjects, primary outcome measures were maximum observed concentration (C max) and area under the concentration–time curve from time zero to infinity (AUC). […] The metabolite or regorafenib percentages were calculated by AUC(0–144)metabolite or regorafenib divided by AUC(0–144)radioactivity calculated from data obtained by HPLC–LSC analysis. Secondary outcomes were: time to C max (t max); apparent terminal elimination half-life (t ½); apparent volume of distribution during the terminal phase after extravascular administration (Vz/F); and total body clearance of drug calculated after extravascular administration (e.g., apparent oral clearance) (CL/F). AUC was estimated by the sum of partial areas: partial areas were calculated using the linear (if C i ≤ C i+1) or the logarithmic (if C i > C i+1) trapezoidal rules. The quality of the half-life calculation was assessed based on graphs showing the concentration–time profile. For reliable calculation of the half-life, at least three data points (concentration/time values) were used. The extrapolated portion of the AUC from the last measured data point C(t n) to infinity was calculated using the concentration C last,calc, which was calculated from the log-linear regression line used for half-life calculation rather than C(t n). In addition, appropriate pharmacokinetic parameters were derived from the total radioactivity-versus-time data in blood and plasma.
(§1) Due to the limited amount of radiocarbon associated with many of the samples, analyses were conducted using HPLC with fraction collection followed by off-line LSC. Samples were analyzed on a 150 × 3 mm Prodigy® ODS-3 100A, 3 µm column (Phenomenex, Aschaffenburg, Germany) protected by 8 × 3 mm Nucleosil® 100-3 C18 HD guard columns (Macherey–Nagel, Düren, Germany). Metabolites were separated with a gradient of aqueous potassium dihydrogen phosphate (1 g/L, pH 2.0, mobile phase A) versus acetonitrile (mobile phase B) at a flow rate of 0.5 mL/min (gradient: 0% B at 0 min, linear to 50% B at 10 min, linear to 60% B at 25 min, linear to 80% B at 26 min, plateau at 80% B to 30 min). The radiochemical profile of [^14C]regorafenib-derived radioactivity was determined for all urine samples, plasma extracts, and fecal homogenate extracts. Here, HPLC fractionation into 96-well plates was followed by off-line LSC (Wallac 1450 MicroBeta liquid scintillation analyzer) after adding 150 μL of scintillation cocktail to each well (Ultima-Flo™ AP, PerkinElmer; sampling rate: 10 s/well) using the Wallac 1450 Microbeta™ Plusliquid detector. Reconstructed radiochemical profiles were compiled from the resulting data.

human hepatocytes = test: In vitro metabolism of [14C]regorafenib in human hepatocytes; type: in vitro ADME; conditions: [14C]regorafenib 2 µM, 2 h
Experimental: Primary human hepatocytes were obtained from two male donors. […] Regorafenib was added from a 200 µM stock solution in acetonitrile, resulting in 1% final acetonitrile in the incubation. At 0 and 2 h, aliquots of the incubation mixture were removed and the incubation was terminated with acetonitrile to a final content of about 30% (v/v). Samples were analyzed directly or stored at − 20 °C until analysis. Analysis was performed by HPLC–liquid scintillation counting (HPLC–LSC) and HPLC–high-resolution mass spectrometry (HPLC–HRMS/MS).

[2] = set-up: method as in PMID 22421192, PMID 22568966; conditions: cited from earlier work; for Exposure relative to regorafenib after a single dose: plasma; for Secondary maximum of plasma concentration–time profile / Tertiary maximum of plasma concentration–time profile: steady state
[3] = set-up: method as in PMID 27734608; conditions: cited from earlier work
[4] = set-up: method as in PMID 24896071; conditions: co-administration of ketoconazole with a single 160 mg dose of regorafenib; cited from earlier work
human feces = test: Incubation with human feces under anaerobic conditions; type: in vitro ADME; conditions: for Stability in feces / toward gut flora: anaerobic conditions, ex vivo; for Conversion to the parent drug on incubation in feces: 10 μM, 24 h, 37 °C, anaerobic, reduction of M-2, hydrolysis of M-7
Experimental: Under anaerobic conditions, a suspension of fresh human feces (about 0.5 g) in degassed water (final volume 5 mL) was treated with a solution of [^14C]-labelled metabolite M-2 or metabolite M-7 (1 mg/mL acetonitrile; final concentration: 10 μM). After incubation for 24 h at 37 °C, the incubation mixture was terminated by the addition of acetonitrile (2 mL). After centrifugation (5 min, 3000 rpm), the supernatant (25 μL) was directly subjected to HPLC with the respective off-line radioactivity detection. As negative controls, metabolites M-2 and M-7 were incubated in water for 24 h at 37 °C.

[5] = Mass balance: urinary and fecal excretion of radioactivity and metabolite pattern in excreta; type: in vivo, human; conditions: individual values of the four subjects
Experimental: Urine: Urine samples were collected at 12-h intervals post-dose on Day 1 and then at 24-h intervals until 288 h post-dose. Urine was stored at 4 °C until it was divided into aliquots for LSC and subsequent metabolite profiling (aliquots were stored at − 20 °C).
Feces: Fecal samples were collected and homogenized in water on a daily basis until 12 days post-dose. Duplicate aliquots of the homogenates were taken for combustion with oxygen (in preparation for LSC), and separate aliquots were used for metabolite profiling.
Liquid samples: Duplicate aliquots of liquid samples were diluted with 1 mL distilled water, if necessary, and mixed with 10 mL Aquasafe 500 Plus scintillation fluid. Levels of radioactivity were measured by LSC (PerkinElmer 2100) with automatic quench correction by an external standard channel ratio method at 13 °C using Ultima Gold™ as the liquid scintillation cocktail. Lower limits of detection (LLOD) were 30 μg-Eq/L for plasma (sample volume 0.5 mL), 50 μg-Eq/L for whole blood (sample volume 0.3 mL), and 0.016 μg-Eq/g for urine (sample weight 1 g).
Fecal samples: Duplicate aliquots of fecal homogenate (about 0.3 g) were weighed into Combustocones® containing Combustopads® for combustion analysis. Samples were combusted using a Packard Tri-Carb 307 Automatic Sample Oxidizer. The resultant ^14CO2 generated was collected by absorption in Carbo-Sorb (8 mL) to which Permafluor E+ (10 mL) was added. Radioactivity was quantified using a liquid scintillation analyzer (PerkinElmer 2100), with automatic quench correction using an external standard method as urine sample analysis. Samples were allowed to stabilize with respect to heat and light, and each sample was analyzed for 5 min. Prior to calculation of individual results, a background count rate was determined and subtracted from each sample’s count rate. LOD was 0.05 μg-Eq/g (sample weight 0.3 g).
as §1

SMILES	Occurrence in plasma [1]	Formation in human hepatocytes (human hepatocytes)	Percent of total AUC(0–144) of radioactivity in plasma [1] [%]	Mean total exposure, AUC(0–144 h) ([1]; plasma, HPLC–LSC) [mg-Eq·h/L]	Stability in feces / toward gut flora (human feces)	also measured
NC(=O)c1cc(Oc2ccc(NC(=O)Nc3ccc(Cl)c(C(F)(F)F)c3)c(F)c2)ccn1 [M-4]	only occasionally found as traces in plasma	identified				
NC(=O)c1cc(Oc2ccc(NC(=O)Nc3ccc(Cl)c(C(F)(F)F)c3)c(F)c2)cc[n+]1[O-] [M-5]		observed	6.3	2.00		Terminal half-life (t 1/2) [2]: about 60 h; Exposure relative to regorafenib after a single dose [2]: signficantly lower exposure than regorafenib; Secondary maximum of plasma concentration–time profile [2]: 6 to 8 h; Tertiary maximum of plasma concentration–time profile [2]: ~24 h; Fraction unbound in plasma [3]: 0.053%; Decrease in mean AUC [4]: > 90%; Decrease in mean C max [4]: > 90%
CNC(=O)c1cc(Oc2ccc(NC(=O)N(c3ccc(Cl)c(C(F)(F)F)c3)C3OC(C(=O)O)C(O)C(O)C3O)c(F)c2)cc[n+]1[O-] (stereo not shown) [M-8]	only occasionally found as traces in plasma	observed			not stable	Course of degradation on incubation with human feces (human feces): reduction of the N-oxide leading to M-7 proceeded much faster than cleavage of the N-glucuronide yielding M-2
O=C(Nc1ccc(Cl)c(C(F)(F)F)c1)Nc1ccc(Oc2cc[n+]([O-])c(C(=O)NCO)c2)cc1F [M-1]	only occasionally found as traces in plasma	observed				
O=C(Nc1ccc(Cl)c(C(F)(F)F)c1)Nc1ccc(Oc2ccnc(C(=O)NCO)c2)cc1F [M-3]	only occasionally found as traces in plasma	identified				
O=C(Nc1ccc(Cl)c(C(F)(F)F)c1)Nc1ccc(Oc2ccnc(C(=O)O)c2)cc1F [M-6]		identified				
CNC(=O)c1cc(Oc2ccc(NC(=O)Nc3ccc(Cl)c(C(F)(F)F)c3)c(F)c2)cc[n+]1[O-] [M-2]		identified	28.7	20.16	not stable	half-life ([1]; male, human, plasma, oral, 120 mg, read-out: Half-life of M-2, range between subjects): 11 to 33 h; Conversion to the parent drug on incubation in feces (human feces): quantitative; Exposure relative to regorafenib after a single dose [2]: signficantly lower exposure than regorafenib; Secondary maximum of plasma concentration–time profile [2]: 6 to 8 h; Tertiary maximum of plasma concentration–time profile [2]: ~24 h; Fraction unbound in plasma [3]: 0.188%; Decrease in mean AUC [4]: > 90%; Decrease in mean C max [4]: > 90%
CNC(=O)c1cc(Oc2ccc(NC(=O)N(c3ccc(Cl)c(C(F)(F)F)c3)C3OC(C(=O)O)C(O)C(O)C3O)c(F)c2)ccn1 (stereo not shown) [M-7]		identified	3.1	2.43	not stable	C max, range between subjects ([1]; plasma, HPLC–LSC): 137–174 μg-Eq/L; Fecal excretion of M-7 in individual subjects [5]: 0.03 % of the dose and 0.3 % of the dose and about 6.0 % of the dose and 13.7 % of the dose and about 14 % of the dose; Conversion to the parent drug on incubation in feces (human feces): < 10%

Source: publication PMC5754413, “Mass balance, metabolic disposition, and pharmacokinetics of a single oral dose of regorafenib in healthy human subjects” (Cancer Chemotherapy and Pharmacology, 2017)
